Experiments:
[1] = test system: SH-SY5Y (human neuroblastoma cell line); assay: LDH cytotoxicity assay, indirect (extract) testing; format: cell-based; conditions: media conditioned 72 hours, cells exposed 24 hours, 1 mM in 5% v/v DMSO, 10 mM in 10% v/v DMSO
Experimental: (§1) The cytotoxicity of PA crosslinked decellularized tissue hydrogels was assessed by an LDH assay in which hydrogels were incubated with SH-SY5Y (human neuroblastoma cell line).
(§2) Crosslinkers tested were: • PA [publicly available food supplement] • Purified oligomeric PA (OPA) [reference standard quality] • GA • GP
(§3) These were all tested in 1 and 10 mM concentrations, with the 1 mM in a solution containing 5% v/v of DMSO, and the 10 mM in a solution containing 10% v/v DMSO.
(§4) The LDH assay quantifies how many cells have died by quantifying the level of lactate that is present in the culture medium which will have been released upon cell membrane disruption during their death. The assay contains […] releases NADH which in turn can react with the dye present in the assay solutions to produce a colorimetric change. This change can be read through absorbance on a microplate spectrophotometer.
(§5) All results for the LDH have been calculated to % cytotoxicity as per the following formula recommended by the manufacturer: […]
Gels were made and crosslinked as per normal procedure and immersed in culture media for 72 hours conditioning. The conditioned culture media was then filtered and placed onto cells for a period of 24 hours. Following exposure to the conditioned media, a sample of the media was removed for testing through LDH.

[2] = test system: SH-SY5Y (human neuroblastoma cell line); assay: LDH cytotoxicity assay, direct testing; format: cell-based; conditions: gel in contact with cell monolayer 24 hours, 1 mM in 5% v/v DMSO, 10 mM in 10% v/v DMSO
Experimental: as §1, §2, §3, §4, §5
Gels were made and crosslinked as per normal procedure and immersed in Hanks balanced salt solution (HBSS) containing 1% v/v of antibiotics and antimycotics overnight. The gels were then removed and immersed into culture media for 2 hours before placing on top of the cell monolayer and ensuring direct contact. […]

With Triton-X-100 [5% Triton] the “LDH (% cytotoxicity relative to Triton)” value [1] was 100% and the “LDH (% cytotoxicity relative to Triton)” value [2] was 100%.

Reference: patent publication US20240366842A1, “DECELLULARIZED TISSUE HYDROGELS” (THE UNIVERSITY OF NOTTINGHAM, priority 2021, published 2024)
